Experimental data from patent US10316371B2, “Screening methods for identifying specific Staphylococcus aureus inhibitors” (TRANA DISCOVERY, INC., priority 2011, dated 2019).
Converted amounts (≈) assume the structure as drawn.

How the values were obtained:
[1] = system: S. aureus specific Arg ASL (anticodon stem loop) RNA oligomer interaction with programmed ribosomes; experiment: Fluorescence polarization assay of Arg ASL / programmed ribosome complex (HTS and dose response); format: binding, S. aureus Arg ASL; E. coli 70S ribosomes; conditions: 6 pt dose response, fluorescence polarization after 4 hours at 25° C., corrected for auto-fluorescence; read-out: IC50
From the text: The assay requires the following materials: • Ribosomes—isolated from E. coli or S. aureus • fMet tRNA (Sigma or Chemical Block, Moscow) • mRNA (including the S-D sequence, the “box” sequence, the codon for methionine, and the codon for arginine that is specific for S. aureus, AGA, optionally with additional base pairs to the left of the S-D sequence and/or to the right of the codon for arginine) • Fluorescently labeled Arg ASL oliogomer • Buffer—HAM20,β • 384 well high binding micro titer plates (Matrix Technologies #4319, sold by Fischer Scientific as cat #50823855), or other appropriate plates for use in high throughput screening • Filtration (Sartorius Stedium 100 Kdalton VC 1042) or centrifugation for complex purification • EDTA—negative control (binding antagonist) • Neomycin—A-site binding enhancer (binding agonist)
A ribosome complex was prepared using the above materials and then purified prior to use in the assay. The prepared complex can be stored in concentrated form at −80° C. The complexes were diluted in buffer and dispensed onto plates. […] Fluorescence polarization was measured at approximately 4 hours after dispensing onto the micro-titer plates.
ASL^Arg was first heated for 2 min at 90° C. in water, after addition of 1/10 V of 10× buffer incubation continued on ice for at least 10 min. Prior to complex formation 70S ribosomes and tRNA were reactivated in buffer for 5 min at 45° C. followed by 10 min at 37° C.; mRNA was heated in buffer at 37° C. for 5 min. • (1000 μl×(2 μM E. coli 70S ribosomes+10 μM mRNA-Arg+4 μM tRNA^fmet)/HAM20,β→30 min @ 37° C.,+1000 μl×(0.2 μM neomycin+[…]))→20 min @ 37° C., overnight on ice • Final complex: (2000 pm P+2000 pm ASL)/2 ml=1 μM P+1 μM ASL HAM20,β:
Preparation of Complexes: The purified complex was diluted in ice cold HAM20,β such that the total fluorescence was approximately 2,000,000 units per 5 μL.
20 μl of the diluted complex was added to all 384 well plates (except for blank wells, which received 20 μL of HAM20 only, without complex) using Multidrop dispenser after which the plates were incubated at 25° C. for 4 hours (target 4.5 hours for middle of batch). Plates were then analyzed for fluorescence polarization in Analyst HT fluorescence plate reader and the following instrument settings:
The parallel and perpendicular fluorescence values of experimental wells were automatically corrected for the corresponding values obtained from the blank wells. The fluorescence polarization was calculated as following: P=(I−Ip)/(I+Ip), wherein Ip—is perpendicular fluorescence and I—is parallel fluorescence.
The percent of effect of experimental compounds was calculated as following: %-Inh=(P0−Pc)/(P0−P100)*100, wherein P0—is average polarization in 0%—inhibition control wells, P100—is average polarization in 100%—inhibition control wells, and Pc—is polarization in compound well.
The 3 sigma HTS hits were cherry picked and retested in 6 pt dose response format, using 3× serial dilution and the top nominal concentration of 100 uM.
The compounds were serially diluted in 10% DMSO and plated into 384 well plates (in a volume of 5 μL) to achieve the nominal final concentration raging from 100 μM to 0.4 μM. The plates received 20 μl of the diluted complex following incubation at 25° C. for 4 hours. Plates were then analyzed for fluorescence polarization as described above (see HTS section).
In parallel, the compounds were tested for auto-fluorescence. To this end, the compounds were plated (using the same dilution protocol) into 384 well plates. The plates received 20 μL of the HAM20 assay buffer only (without complex). The plates were incubated for 4 hrs and then were analyzed for fluorescence polarization as described above.

[2] = system: SA 29213 (Staphylococcus aureus (ATCC 29213)); experiment: MIC; format: cell-based; conditions: ATCC29213, SA 29213, read-out: MIC
Experimental: (§1) The strains included Staphylococcus aureus, Methicillin Resistant (ATCC 33591), Methicillin-Resistant Staphylococcus aureus USA300, Staphylococcus aureus 158, Staphylococcus aureus 22, Staphylococcus aureus 2, Staphylococcus aureus (ATCC 29213), and Staphylococcus aureus 182.
(§2) A series of compounds were evaluated for their activity against drug resistant S. aureus, including MSSA and MRSA strains.

[3] = system: SA 158 (Staphylococcus aureus 158); experiment: MIC; format: cell-based; conditions: SA 158, read-out: MIC
Experimental: as §1, §2

[4] = system: SA 182 (Staphylococcus aureus 182); experiment: MIC; format: cell-based; conditions: SA 182, read-out: MIC
Experimental: as §1, §2

Mammalian Cell Toxicity = format: cell-based; conditions: human, MRC5 cells
E. faecium 145494 = experiment: MIC; format: cell-based; conditions: Enterococcus faecium; E. faecium 145494; read-out: MIC
Experimental: (§3) The compounds were re-tested against other bacteria, including Staphylococcus epidermidis (ATCC 35984), Staphylococcus epidermidis (MRSE), E. faecium 134529, E. faecium 145494, […], E. faecium 161651, S. pneumoniae 49619, and S. pneumoniae 149389.
as §2

E. faecium 134529 = experiment: MIC; format: cell-based; conditions: Enterococcus faecium; E. faecium 134529; read-out: MIC
Experimental: as §3, §2

E. faecalis 161651 = experiment: MIC; format: cell-based; conditions: Enterococcus faecalis; E. faecalis 161651; read-out: MIC
Experimental: as §3, §2

S. pneumoniae 149389 = experiment: MIC; format: cell-based; conditions: Streptococcus pneumoniae; S. pneumoniae 149389; read-out: MIC
Experimental: as §3, §2

S. pneumoniae 49619 = experiment: MIC; format: cell-based; conditions: Streptococcus pneumoniae; S. pneumoniae 49619; read-out: MIC
Experimental: as §3, §2

S. epidermidis 35984 = experiment: MIC; format: cell-based; conditions: Staphylococcus epidermidis; S. epidermidis 35984; read-out: MIC
Experimental: as §3, §2

S. epidermidis MRSE 01 = experiment: MIC; format: cell-based; conditions: Staphylococcus epidermidis; S. epidermidis MRSE 01; read-out: MIC
Experimental: as §3, §2

E. faecalis 29212 = experiment: MIC; format: cell-based; conditions: Enterococcus faecalis; E. faecalis 29212; read-out: MIC
Experimental: as §3, §2

Brc1ccc(-c2nc(N3CCNCC3)c3ccccc3n2)cc1 [Compound #880, 2-(4-bromophenyl)-4-(1-piperazinyl)-quinazoline]
IC50 [1]: 19.9 µM
MIC [2]: 8 µg/mL (≈ 21.7 µM)
MIC [3]: 8 µg/mL (≈ 21.7 µM)
MIC [4]: 8 µg/mL (≈ 21.7 µM)
CC50 (Mammalian Cell Toxicity): 2.18 µg/mL (≈ 5.9 µM)
MIC (E. faecium 145494): 4 µg/mL (≈ 10.8 µM)
MIC (E. faecium 134529): 8 µg/mL (≈ 21.7 µM)
MIC (E. faecalis 161651): 8 µg/mL (≈ 21.7 µM)
MIC (S. pneumoniae 149389): 32 µg/mL (≈ 86.7 µM)
MIC (S. pneumoniae 49619): 32 µg/mL (≈ 86.7 µM)
MIC (S. epidermidis 35984): 8 µg/mL (≈ 21.7 µM)
MIC (S. epidermidis MRSE 01): 8 µg/mL (≈ 21.7 µM)
MIC (E. faecalis 29212): 8 µg/mL (≈ 21.7 µM)

Cc1ccc2nc(-c3ccc(NC(=O)CN4CCN(CCO)CC4)cc3)sc2c1 [Compound #169, 2-[4-(2-hydroxyethyl)-1-piperazinyl]-N-[4-(6-methyl-1,3-benzothiazol-2-yl)phenyl]acetamide]
IC50 [1]: 69.3 µM
MIC [2]: 16 µg/mL (≈ 39 µM)
MIC [3]: 128 µg/mL (≈ 312 µM)
MIC [4]: 16 µg/mL (≈ 39 µM)
CC50 (Mammalian Cell Toxicity): < 2 µg/mL
MIC (E. faecium 145494): 16 µg/mL (≈ 39 µM)
MIC (E. faecium 134529): 16 µg/mL (≈ 39 µM)
MIC (E. faecalis 161651): 16 µg/mL (≈ 39 µM)
MIC (S. pneumoniae 149389): 128 µg/mL (≈ 312 µM)
MIC (S. pneumoniae 49619): 64 µg/mL (≈ 156 µM)
MIC (S. epidermidis 35984): 16 µg/mL (≈ 39 µM)
MIC (S. epidermidis MRSE 01): 16 µg/mL (≈ 39 µM)
MIC (E. faecalis 29212): 64 µg/mL (≈ 156 µM)
